target: T1, human Mnk2a (Homo sapiens, UniProt Q9HBH9); experiment: Mnk2a in vitro kinase assay (indirect fluorescence polarization); type: biochemical; conditions: GST-Mnk2a pre-activated with ERK2, 20 μM ATP, 30 μM substrate peptide; read-out: MNK2 IC50
T1 construct: made in house; host or cells: E. coli BL21 (vector pGEX-4T1)
Method: Inhibitory potency of compounds against Mnk1, Mnk2a and other kinases was assessed with assays based on a format known to those skilled in the art as the indirect (competitive) fluorescence polarization. The assay detection system comprises a small fluorophore-labeled phospho-peptide (termed ligand) bound to a phospho-specific antibody. The product generated by the kinase reaction competes with the ligand for antibody binding. Based on the larger molecular volume of the bound ligand, which results in a lower rotation rate in solution, its emitted light has a higher degree of polarization than the one from the free ligand.
As a source of enzyme, human Mnk1 and human Mnk2a were expressed as GST fusion proteins in E. coli, purified to >80% homogeneity by glutathione affinity chromatography and activated in vitro with pre-activated ERK2. In brief, the open reading frames of human Mnk1 and Mnk2a were amplified from cDNA using the forward/reverse primer pairs
(utilized restriction sites underlined), respectively, and cloned into the BamHI and SalI sites of the vector pGEX-4T1 (Amersham, Sweden, cat. no. 27-4580-01). These constructs allow prokaryotic expression of Mnk1 or Mnk2a as fusion protein with a N-terminal glutathione S-transferase (GST) tag, referred to as GST-Mnk1 or GST-Mnk2a. The following expression and purification procedure was identical for GST-Mnk1 and GST-Mnk2a, referring in general to GST-Mnk, when not distinguishing between the two isoforms. Expression of GST-Mnk was in E. coli BL21 (Merck Biosciences, Germany, cat. no. 69449). Cells were grown in LB-Bouillon (Merck, Germany, cat. no. 1.10285) supplemented with 100 μg/ml ampicillin (Sigma, Germany, cat. no. A9518) at 37° C. When the culture had reached a density corresponding to an A600 of 0.8, an equal volume of ice cold LB/ampicillin was added, the culture transferred to 25° C. and induced for 4 h with 1 mM isopropyl thiogalactoside (IPTG, Roth, Germany, cat. no. 2316.4). Cells harvested by centrifugation were resuspended in 10 ml lysis buffer (50 mM tris(hydroxymethyl)aminomethane hydrochloride (Tris/HCl, Sigma, Germany, cat. no. T5941) pH 7.5, 300 mM sodium chloride (NaCl, Sigma, Germany, cat. no. S7653), 5% (w/v) glycerol (Sigma, Germany, cat. no. G5516), 3 mM DTT dithiotreitol (DTT, Sigma, Germany, cat. no. D9779)) per gram wet weight cell pellet. Lysates were prepared by disruption of cells with a sonifier and subsequent clearing by centrifugation at 38000 g for 45 min at 4° C.
The lysate was applied to a GSTPrep FF 16/10 column (Amersham, Sweden, cat. no. 17-5234-01) equilibrated with lysis buffer. Removal of unbound material was with 3 column volumes (CV) lysis buffer. Elution was with 2 CV of elution buffer (50 mM Tris/HCl pH 7.5, 300 mM NaCl, 5% (w/v) glycerol, 20 mM glutathione (Sigma, Germany, cat. no. G4251)). Peak fractions were pooled and the protein transferred into storage buffer (50 mM Tris/HCl pH 7.5, 200 mM NaCl, 0.1 mM ethylene glycol-bis(2-aminoethylether)-N,N,N′,N′-tetraacetic acid (EGTA, Aldrich, Germany, cat. no. 23, 453-2), 1 mM DTT, 10% (w/v) glycerol, 0.5 M sucrose (Sigma, Germany, cat. no. SO389) by gel filtration on a PD10 desalting column (Amersham, Sweden, cat. no. 17-0851-01). Aliquots were shock frozen in liquid nitrogen and stored at −80° C.
Activation of Mnk1 and Mnk2a was at a concentration of 2.5 μM of either purified GST-Mnk1 or GST-Mnk2a by incubation with 150 nM pre-activated NHis-ERK2 (see ERK2 assay for preparation) and 50 μM adenosine triphosphate (ATP, Sigma, cat. no. A2699) in a buffer comprising 20 mM N-(2-hydroxyethyl)piperazine-N′-(2-ethanesulfonic acid) (HEPES, Fluka, Germany, cat. no 54459)/potassium hydroxide (KOH, Roth, Germany, cat. no 6751.1) pH 7.4, 10 mM magnesium chloride (MgCl2, Sigma, Germany, cat. no. M2670), 0.25 mM DTT, 0.05% (w/v) polyoxyethylene 20 stearylether (Brij 78, Sigma, Germany, cat. no. P4019) (HMDB buffer) for 45 min at 30° C. […]

T1 sequence (Q9HBH9 whole entry): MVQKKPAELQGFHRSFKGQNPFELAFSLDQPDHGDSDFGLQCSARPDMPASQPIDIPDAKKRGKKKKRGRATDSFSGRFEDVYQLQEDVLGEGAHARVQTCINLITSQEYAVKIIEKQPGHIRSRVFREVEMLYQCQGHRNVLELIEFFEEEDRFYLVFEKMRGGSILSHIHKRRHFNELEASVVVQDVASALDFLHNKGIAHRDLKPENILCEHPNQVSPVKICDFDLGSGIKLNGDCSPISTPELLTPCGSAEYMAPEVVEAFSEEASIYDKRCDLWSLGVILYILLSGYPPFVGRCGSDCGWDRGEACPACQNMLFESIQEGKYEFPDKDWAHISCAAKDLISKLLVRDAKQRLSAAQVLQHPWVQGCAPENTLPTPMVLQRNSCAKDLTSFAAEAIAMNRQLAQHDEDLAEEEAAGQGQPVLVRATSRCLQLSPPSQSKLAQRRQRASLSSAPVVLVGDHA

Point of comparison: Cc1c(C(=O)NCC(=O)N(C)C)sc2ncnc(Nc3ccc(F)cc3OC3CCOCC3)c12 [Example 157], IC50 65 nM. Against it:
- Cc1c(C(N)=O)sc2ncnc(Nc3ccc(F)cc3O[C@H]3CCCN(CCC(F)(F)F)C3)c12 [Example 9] — 2.8-fold higher, 180 nM
- Cc1c(C(=O)NCc2ccccc2C#N)sc2ncnc(Nc3ccc(F)cc3OC3CCCNC3)c12 (centres unmarked) [Example 41] — 2.1-fold lower, 31 nM
- Cc1c(C(=O)NCc2ccco2)sc2ncnc(Nc3ccc(F)cc3OC3CCCNC3)c12 (centres unmarked) [Example 22] — 2.5-fold lower, 26 nM
- Cc1c(C(=O)NCCCN(C)C)sc2ncnc(Nc3cccnc3O[C@@H]3CCOC3)c12 [Example 268] — 1.5-fold higher, 100 nM
- Cc1c(C(=O)NCCOc2ccccc2)sc2ncnc(Nc3ccc(F)cc3OC3CCCNC3)c12 (centres unmarked) [Example 44] — within 1.5-fold, 64 nM
- Cc1c(C(=O)NCC(=O)N2CCCC2)sc2ncnc(Nc3ccc(F)cc3OC3CCOCC3)c12 [Example 201] — 2.1-fold lower, 31 nM
- CONC(=O)c1sc2ncnc(Nc3cccnc3O[C@@H]3CCCOC3)c2c1C [Example 261] — within 1.5-fold, 46 nM
- Cc1c(C(=O)NCC2CN(C)CCO2)sc2ncnc(Nc3ccc(F)cc3OC3CCOCC3)c12 (centres unmarked) [Example 116, 4-[4-Fluoro-2-(tetrahydro-pyran-4-yloxy)-phenylamino]-5-methyl-thieno[2,3-d]pyrimidine-6-carboxylic acid (4-methyl-morpholin-2-ylmethyl)-amide trifluoracetate] — 3-fold lower, 22 nM
- Cc1c(C(=O)NCCC2CCCN2C)sc2ncnc(Nc3ccc(F)cc3OC3CCOCC3)c12 (centres unmarked) [Example 119] — 2.5-fold lower, 26 nM
- Cc1c(C(N)=O)sc2ncnc(Nc3ccc(Cl)cc3O[C@H]3CCCNC3)c12 [Example 66, 4-[4-Chloro-2-((S)-piperidin-3-yloxy)-phenylamino]-5-methyl-thieno[2,3-d]pyrimidine-6-carboxylic acid amide] — 6.5-fold lower, 10 nM
- Cc1c(C(=O)NC2CCN(C)CC2)sc2ncnc(Nc3ccc(F)cc3OC3CCOCC3)c12 [Example 174] — within 1.5-fold, 60 nM
- COCCONC(=O)c1sc2ncnc(Nc3ccc(F)cc3OC3CCOCC3)c2c1C [Example 245] — 1.7-fold lower, 39 nM
- Cc1c(C(N)=O)sc2ncnc(Nc3ccc(F)cc3O[C@@H]3CCOC3)c12 [Example 104] — 5.4-fold lower, 12 nM
- Cc1c(C(=O)N[C@H]2CC[C@H](CO)CC2)sc2ncnc(Nc3ccc(F)cc3OC3CCOCC3)c12 [Example 129] — 2-fold lower, 32 nM
- Cc1c(C(=O)NCc2cocn2)sc2ncnc(Nc3ccc(F)cc3OC3CCOCC3)c12 [Example 198] — 2.2-fold lower, 29 nM
- Cc1c(C(N)=O)sc2ncnc(Nc3ccc(F)cc3O[C@@H]3CN[C@H](CO)C3)c12 [Example 115, 4-[4-Fluoro-2-((3S,5S)-5-hydroxymethyl-pyrrolidin-3-yloxy)-phenylamino]-5-methyl-thieno[2,3-d]pyrimidine-6-carboxylic acid amide] — 1.5-fold higher, 100 nM
- Cc1c(C(=O)NCCN2CCNC2=O)sc2ncnc(Nc3ccc(F)cc3OC3CCOCC3)c12 [Example 214] — within 1.5-fold, 76 nM
- Cc1c(C(=O)NCCC2CCCN2C)sc2ncnc(Nc3ccc(F)cc3OC3CCCNC3)c12 (centres unmarked) [Example 53] — within 1.5-fold, 46 nM
- Cc1c(C(=O)N[C@H]2CCC[C@@H]2O)sc2ncnc(Nc3ccc(F)cc3OC3CCOCC3)c12 [Example 254] — 1.5-fold lower, 42 nM
- CCOCCCNC(=O)c1sc2ncnc(Nc3ccc(F)cc3OC3CCOCC3)c2c1C [Example 218] — 2-fold lower, 33 nM
- Cc1c(C(=O)NCCCc2ccncc2)sc2ncnc(Nc3ccc(F)cc3OC3CCCNC3)c12 (centres unmarked) [Example 56] — within 1.5-fold, 49 nM
- Cc1c(C(N)=O)sc2ncnc(Nc3ccc(F)cc3O[C@H]3C[C@@H](CO)N(S(C)(=O)=O)C3)c12 [Example 113, 4-[4-Fluoro-2-((3S,5S)-5-hydroxymethyl-1-methanesulfonyl-pyrrolidin-3-yloxy)-phenylamino]-5-methyl-thieno[2,3-d]pyrimidine-6-carboxylic acid amide] — 6.5-fold higher, 420 nM
- COC(=O)c1sc2ncnc(Nc3ccc(F)cc3O[C@H]3C[C@H]4COC(=O)N4C3)c2c1C [Example 114, 4-[4-Fluoro-2-((6S,7aS)-3-oxo-tetrahydro-pyrrolo[1,2-d]oxazol-6-yloxy)-phenylamino]-5-methyl-thieno[2,3-d]pyrimidine-6-carboxylic acid methyl ester] — 8.5-fold higher, 550 nM
- CC(=O)N1CCC[C@@H](Oc2cc(F)ccc2Nc2ncnc3sc(C(N)=O)c(C)c23)C1 [Example 83] — 1.8-fold higher, 120 nM
- Cc1c(C(=O)NCCCc2c[nH]cn2)sc2ncnc(Nc3ccc(F)cc3OC3CCOCC3)c12 [Example 169] — 1.7-fold lower, 38 nM
- Cc1c(C(=O)NCC2CCC(=O)N2)sc2ncnc(Nc3ccc(F)cc3OC3CCOCC3)c12 (centres unmarked) [Example 150] — within 1.5-fold, 70 nM
- Cc1c(C(=O)NCCCS(C)(=O)=O)sc2ncnc(Nc3ccc(F)cc3OC3CCOCC3)c12 [Example 193] — 2-fold lower, 33 nM
- Cc1c(C(=O)NCCCN2CC[C@H](O)C2)sc2ncnc(Nc3ccc(F)cc3OC3CCOCC3)c12 [Example 251] — 2.3-fold lower, 28 nM
- C#CCNC(=O)c1sc2ncnc(Nc3ccc(F)cc3OC3CCOCC3)c2c1C [Example 229] — 2.4-fold lower, 27 nM
- Cc1c(C(=O)NCCCN2CC(F)(F)C2)sc2ncnc(Nc3ccc(F)cc3OC3CCOCC3)c12 [Example 125] — 2.6-fold lower, 25 nM
- Cc1c(C(=O)NCCN2CCCCC2)sc2ncnc(Nc3ccc(F)cc3OC3CCOCC3)c12 [Example 222] — within 1.5-fold, 51 nM
- Cc1c(C(=O)NCCc2cn[nH]c2O)sc2ncnc(Nc3ccc(F)cc3OC3CCOCC3)c12 [Example 195] — within 1.5-fold, 67 nM
- Cc1c(C(=O)NCCC[S+](C)[O-])sc2ncnc(Nc3ccc(F)cc3OC3CCOCC3)c12 (centres unmarked) [Example 236] — 2-fold lower, 33 nM
- COC[C@H]1CCCN1CCCNC(=O)c1sc2ncnc(Nc3ccc(F)cc3OC3CCOCC3)c2c1C [Example 121] — 2-fold lower, 33 nM
- Cc1c(C(=O)NCC#N)sc2ncnc(Nc3cccnc3O[C@@H]3CCCOC3)c12 [Example 266] — 2.6-fold lower, 25 nM
- Cc1c(C(=O)NCCC(N)=O)sc2ncnc(Nc3ccc(F)cc3OC3CCOCC3)c12 [Example 165] — 1.7-fold lower, 39 nM
- Cc1c(C(=O)NO)sc2ncnc(Nc3ccc(F)cc3OC3CCN(S(C)(=O)=O)C3)c12 (centres unmarked) [Example 93] — 3.4-fold lower, 19 nM
- Cc1c(C(=O)NCCCN2CCN(C)CC2)sc2ncnc(Nc3ccc(F)cc3OC3CCOCC3)c12 [Example 120] — 3-fold lower, 22 nM
- Cc1c(C(=O)NCCCO)sc2ncnc(Nc3ccc(F)cc3OC3CCOCC3)c12 [Example 152] — 1.6-fold lower, 40 nM
- Cc1c(C(=O)NCC(C)(C)CO)sc2ncnc(Nc3ccc(F)cc3OC3CCOCC3)c12 [Example 216] — within 1.5-fold, 54 nM
- Cc1c(C(=O)NCCC#N)sc2ncnc(Nc3ccc(F)cc3OC3CCOCC3)c12 [Example 228] — 1.9-fold lower, 35 nM
- Cc1c(C(=O)NCc2ncco2)sc2ncnc(Nc3ccc(F)cc3OC3CCCNC3)c12 (centres unmarked) [Example 23] — within 1.5-fold, 48 nM
- CSCCNC(=O)c1sc2ncnc(Nc3ccc(F)cc3OC3CCOCC3)c2c1C [Example 234] — within 1.5-fold, 90 nM
- Cc1c(C(=O)N[C@H]2CC[C@@](C)(O)CC2)sc2ncnc(Nc3ccc(F)cc3OC3CCOCC3)c12 [Example 170] — 1.9-fold higher, 125 nM
- Cc1c(C(=O)NCC2(O)CC2)sc2ncnc(Nc3ccc(F)cc3OC3CCOCC3)c12 [Example 178] — within 1.5-fold, 47 nM
- Cc1c(C(=O)NCC(c2cccnc2)N(C)C)sc2ncnc(Nc3ccc(F)cc3OC3CCCNC3)c12 (centres unmarked) [Example 62] — 1.7-fold higher, 110 nM

— patent US8648068B2, “Heterocycloalkyl-containing thienopyrimidines for pharmaceutical compositions” (Boehringer Ingelheim International GmbH, priority 2010, dated 2014)
